System: Taxol-resistant ovarian cancer cell line SKOV3/TAX compared to ovarian cancer cell line SKOV3
Assay: Cell viability of SKOV3 and SKOV3/TAX cultured in medium containing Taxol (cell counting kit-8)
Assay type: cell-based
Conditions: medium containing 30 μM Taxol, FIG. 1
Procedure: Ovarian cancer cell line SKOV3 (HTB-77™, Sigma-Aldrich, St. Louis, MO, USA) was cultured in a DMEM medium (31800-022, Gibco, Grand Island, NY, USA) containing 5 μM Taxol, 10% FBS and 1% Antibiotic-Antimycotic (15240062, Gibco, Grand Island, NY, USA) at 37° C. in a 5% CO2 incubator for 1 month. The cells were harvested and cultured continuously in a 5% CO2 incubator at 37° C., in a medium containing 10 µM Taxol for 2 months, in a medium containing 20 µM Taxol for 2 months, and in a medium containing 30 μM Taxol for 2 months (total for 7 months), and then the viable cell line was isolated. The isolated cell line was named SKOV3/TAX and the following experiments were performed using as an ovarian cancer cell line resistant to Taxol. In order to compare Taxol resistance, the SKOV3 and SKOV3/TAX cells were cultured at 5,000 cells per well in a 96-well plate in a medium containing Taxol at a concentration of 30 μM per well. Then, cell viabilities were measured at 0, 24, and 48 hours with a cell counting kit-8 (CK04-11, Dojindo, Rockville, MD, USA).

SMILES: CC(=O)O[C@H]1C(=O)[C@@]2(C)[C@H]([C@H](OC(=O)c3ccccc3)[C@]3(O)C[C@H](OC(=O)[C@H](O)[C@@H](NC(=O)c4ccccc4)c4ccccc4)C(C)=C1C3(C)C)[C@]1(OC(C)=O)CO[C@@H]1C[C@@H]2O [Taxol, paclitaxel]
- cell viability of SKOV3/TAX compared to SKOV3 (increase) (24 hours, 5,000 cells per well): approximately 1.67 fold
- cell viability of SKOV3/TAX compared to SKOV3 (increase) (48 hours, 5,000 cells per well): approximately 2.40 fold
